No end group written: not given here.
Assays:
[1] = test system: CVB3; experiment: Anti-CVB3 effect in Vero cells, qRT-PCR; format: cell-based, Coxsackievirus B3; conditions: text of Example 21, read-out: IC50 against CVB3
Description: • (1) Vero cells were plated in a 24-well cell plate. • (2) After the cells reached 70%-80% confluence, the MEM medium containing 10% serum was replaced with a MEM medium containing 2% serum and CVB3 virus, 0.5 ml per well. MOI of the virus was 0.01. […]

[2] = test system: CVB5; experiment: Anti-CVB5 effect in RD cells, qRT-PCR; format: cell-based, Coxsackievirus B5; conditions: Example 20, read-out: IC50 against CVB5
Description: • (1) […] were plated in a 24-well cell plate. • (2) After the cells reached 70%-80% confluence, the MEM medium containing 10% serum was replaced with a MEM medium containing 2% serum (0.5 ml/well).

## YGRKKRRQRRRGSGEAVREYCK [BP8]
[1]
  IC50: 4120 nM
[2]
  IC50: 1540 nM
